Test results as given in article PMC6270420, “Antibacterial Activity of Salicylanilide 4-(Trifluoromethyl)benzoates” (Molecules, 2013).
In brackets after ≈: the same amount, converted by molar mass. Where two headings read alike, the source gives them in different places.

Legend:
Mtb. Praha 131 (XDR-TB) = experiment: microbe, parasite or virus in culture; type: cell-based; details: Mycobacterium tuberculosis, read-out: MIC Mtb. Praha 131 (XDR-TB)
[1] = tested on: M. kansasii 6509/96 (clinically isolated strain); experiment: Antimycobacterial MIC micromethod; type: cell-based; details: Mycobacterium kansasii, read-out: MIC M. kansasii 6509/96
[2] = tested on: Gram-positive cocci including MRSA; experiment: Antibacterial microdilution, summary for Gram-positive cocci; type: cell-based; details: Staphylococcus aureus, read-out: MICs against Gram-positive cocci
Description: The in vitro antibacterial activity was assayed against eight Gram-positive and Gram-negative strains: Staphylococcus aureus CCM 4516/08, methicillin-resistant Staphylococcus aureus H 5996/08 (MRSA), Staphylococcus epidermidis H 6966/08, Enterococcus sp. J 14365/08; Escherichia coli CCM 4517, Klebsiella pneumoniae D 11750/08, ESBL-positive Klebsiella pneumoniae J 14368/08, and Pseudomonas aeruginosa CCM 1961.
The microdilution broth method modified according to standard M07-A07 in Mueller-Hinton broth (HiMedia Laboratories, Mumbai, India) adjusted to pH 7.4 (±0.2) was used. The tested compounds were dissolved in DMSO to the final concentrations ranging from […]. Benzylpenicillin (penicillin G) was used as a comparative drug. Bacterial inoculum in sterile water was prepared to match 0.5 McFarland scale ([…]). The minimum inhibitory concentrations were assayed as 90% (IC90) or higher reduction of growth when compared to the control. The determination of results was performed visually and spectrophotometrically (at 540 nm). The values of MICs were determined after 24 and 48 h of incubation in the darkness at 35 °C (±0.1) in a humid atmosphere.

[3] = tested on: Mycobacterium kansasii 235/80; experiment: Antimycobacterial MIC micromethod; type: cell-based; details: read-out: MIC M. kansasii 235/80
Mtb. 53/2009 = experiment: microbe, parasite or virus in culture; type: cell-based; details: Mycobacterium tuberculosis, read-out: MIC Mtb. 53/2009
Mtb. 9449/2006 = experiment: microbe, parasite or virus in culture; type: cell-based; details: Mycobacterium tuberculosis, read-out: MIC Mtb. 9449/2006
HepG2 cells = experiment: Cytotoxicity evaluation (CellTiter 96 MTS); type: cell-based, human; details: Homo sapiens, HepG2, 24 h, read-out: IC50 HepG2
How it was run: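 Human HepG2 cells (passages 21–24) seeded 1 × 10^4/well, treated next day with 0.01–20 µM compound (4-(trifluoromethyl)benzoic acid 10–4,000 µM), triplicates, 24 h at 37 °C. MTS reduction read at 490 nm after 2 h; IC50 = concentration cutting viability to 50% of control.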

[4] = tested on: Mycobacterium tuberculosis, M. avium and M. kansasii; experiment: Antimycobacterial MIC, summary over all mycobacterial strains; type: cell-based; details: range over all strains and times; read-out: MICs against all mycobacterial strains

Row | SMILES | MIC (Mtb. Praha 131 (XDR-TB); 336 h) | MIC (Mtb. Praha 131 (XDR-TB); 504 h) | MIC ([1]; 168 h, 7 d) | MIC ([1]; 336 h, 14 d) | MIC ([1]; 504 h, 21 d) | MIC [2] | MIC ([3]; 235/80, 168 h, 7 d) | MIC ([3]; 235/80, 336 h, 14 d) | MIC ([3]; 235/80, 504 h, 21 d) | MIC (Mtb. 53/2009; 336 h) | MIC (Mtb. 53/2009; 504 h) | MIC (Mtb. 9449/2006; 336 h) | MIC (Mtb. 9449/2006; 504 h) | IC50 (HepG2 cells) | MIC [4]
1 | O=C(Oc1ccc(Cl)cc1C(=O)Nc1ccc(Cl)c(Cl)c1)c1ccc(C(F)(F)F)cc1 [1e] | 2 µM (≈ 0.977 µg/mL) | 2 µM (≈ 0.977 µg/mL) | 1 µM (≈ 0.489 µg/mL) | 2 µM (≈ 0.977 µg/mL) | 4 µM (≈ 1.95 µg/mL) | < 1 µM | 1 µM (≈ 0.489 µg/mL) | 2 µM (≈ 0.977 µg/mL) | 4 µM (≈ 1.95 µg/mL) | 2 µM (≈ 0.977 µg/mL) | 4 µM (≈ 1.95 µg/mL) | 2 µM (≈ 0.977 µg/mL) | 2 µM (≈ 0.977 µg/mL) | 3.13 µM | 
2 | O=C(Oc1cc(Cl)ccc1C(=O)Nc1ccc(Br)cc1)c1ccc(C(F)(F)F)cc1 [1j] | 1 µM (≈ 0.499 µg/mL) | 2 µM (≈ 0.997 µg/mL) | 2 µM (≈ 0.997 µg/mL) | 4 µM (≈ 1.99 µg/mL) | 4 µM (≈ 1.99 µg/mL) | < 1 µM | 1 µM (≈ 0.499 µg/mL) | 4 µM (≈ 1.99 µg/mL) | 4 µM (≈ 1.99 µg/mL) | 2 µM (≈ 0.997 µg/mL) | 2 µM (≈ 0.997 µg/mL) | 2 µM (≈ 0.997 µg/mL) | 2 µM (≈ 0.997 µg/mL) | 4.82 µM | 
3 | O=C(Oc1ccc(Cl)cc1C(=O)Nc1ccc(C(F)(F)F)cc1)c1ccc(C(F)(F)F)cc1 [1o, 4-chloro-2-[4-(trifluoromethyl)phenylcarbamoyl]phenyl 4-(trifluoromethyl)benzoate] | 0.5 µM (≈ 0.244 µg/mL) | 1 µM (≈ 0.488 µg/mL) | 1 µM (≈ 0.488 µg/mL) | 2 µM (≈ 0.976 µg/mL) | 2 µM (≈ 0.976 µg/mL) |  | 1 µM (≈ 0.488 µg/mL) | 2 µM (≈ 0.976 µg/mL) | 2 µM (≈ 0.976 µg/mL) | 1 µM (≈ 0.488 µg/mL) | 1 µM (≈ 0.488 µg/mL) | 1 µM (≈ 0.488 µg/mL) | 1 µM (≈ 0.488 µg/mL) | 1.33 µM | 1 to 4 µM (≈ 0.488 to 1.95 µg/mL)
